{"source": "patent US11047847B2", "about": "“Methods and apparatus for modeling cancer metastasis in vitro” (Wake Forest University Health Sciences, priority 2015, dated 2021)", "key": {"[1]": {"tested_on": "HCT116 organoids (KRASMT)", "test": "MTS assay of mitochondrial metabolism in CRC organoids in microfluidic devices", "format": "cell-based, human", "details": "48-hour treatment", "description": "(§1) Precision medicine—identifying treatments for patients based on their tumor genetic profiles—has gained significant traction. […] In a non-limiting example, colorectal cancer (CRC) organoids were created by encapsulating CRC cells (Caco2 and SW480—WT; HCT116—KRASMT; and HT29—BRAFMT) in hyaluronic acid and gelatin hydrogels in microfluidic devices. Each type of CRC organoid was then subjected to a panel of clinical CRC drugs: 5-FU or oxaliplatin (1st line drugs effective in WT tumors), Tramatinib (an EGFR pathway drug effective in KRASMT tumors), and sorafenib or regorafenib (EGFR pathway drugs effective in BRAFMT tumors). Following 48-hour treatments, organoids were assessed for mitochondrial metabolism by MTS assays. There appeared to be clear differences in drug responsiveness that correlated with EGFR genetic states."}, "[2]": {"tested_on": "Caco2 organoids (WT)", "test": "MTS assay of mitochondrial metabolism in CRC organoids in microfluidic devices", "format": "cell-based", "details": "48-hour treatment", "description": "as §1"}, "[3]": {"tested_on": "SW480 organoids (WT)", "test": "MTS assay of mitochondrial metabolism in CRC organoids in microfluidic devices", "format": "cell-based", "details": "48-hour treatment", "description": "as §1"}, "[4]": {"tested_on": "HCT-116 cells", "test": "Drug treatment and assessment of migration, multi-zone tumor organoid migration model (soft tumor, stiff tissue)", "format": "cell-based, human", "details": "50 μM Marimastat in DMEM vs no drug control", "protocol": "To assess the influence of the physical tumor microenvironment parameters on tumor cell migration, a variation of the organoids described above were […]. Instead of encapsulating homogenously mixed cells throughout the hydrogel, 3-D organoid volumes were formed first, after which a volume of 5 μL HCT-116 cells in hydrogel precursor solution was pipetted into the center of the organoid space and polymerized in place by a 1 second exposure to UV light. […] Organoid and tumor zone elastic moduli were modulated by swapping of the linear PEGDA crosslinker molecule (3.4 kDa MW) with a 4-arm PEG-acrylate molecule (10 kDa MW, Creative PEGWorks, Winston-Salem, N.C.) or 8-arm PEG-acrylate crosslinker molecule (10 kDa MW, Creative PEGWorks) to generate stiffer hydrogels. […] Fluorescent and brightfield overlay images were captured on day 3, day 7, and day 10, from which distances of migration of cells out of the tumor were determined over time using ImageJ software. […]"}, "[5]": {"tested_on": "HT29 organoids (BRAFMT)", "test": "MTS assay of mitochondrial metabolism in CRC organoids in microfluidic devices", "format": "cell-based", "details": "48-hour treatment", "description": "as §1"}}, "note": "Entries after “also recorded” stand apart in the source; their conditions may differ."}
{"smiles": "O=c1[nH]cc(F)c(=O)[nH]1", "note": "[5-FU]", "values": [{"measurement": "drug sensitivity (mitochondrial metabolism by MTS)", "setting": "[1]", "value": "particularly sensitive"}, {"measurement": "drug sensitivity (mitochondrial metabolism by MTS)", "setting": "[2]", "value": "particularly sensitive"}, {"measurement": "drug sensitivity (mitochondrial metabolism by MTS)", "setting": "[3]", "value": "particularly sensitive"}]}
{"smiles": "CNC(=O)C(NC(=O)C(CC(C)C)C(O)C(=O)NO)C(C)(C)C", "note": "(stereo not shown) [Marimastat, N-[2,2-dimethyl-1-(methylcarbamoyl)propyl]-2-[hydroxy-(hydroxycarbamoyl)methyl]-4-methyl-pentanamide]", "values": [{"measurement": "migration distance of HCT-116 cells out of the tumor", "setting": "[4]; day 3, day 7 and day 10, length in pixel counts, p<0.05", "value": "significantly prevented migration"}, {"measurement": "tumor cell invasion / outward growth of HCT-116 aggregates into the surrounding 3-D environment", "setting": "[4]; overlay images, day 10", "value": "reduce tumor cell invasion; also recorded: prevents outward growth of aggregates"}]}
{"smiles": "CNC(=O)c1cc(Oc2ccc(NC(=O)Nc3ccc(Cl)c(C(F)(F)F)c3)c(F)c2)ccn1", "note": "[regorafenib]", "values": [{"measurement": "drug sensitivity (mitochondrial metabolism by MTS)", "setting": "[5]", "value": "slight sensitivity"}]}
{"smiles": "CNC(=O)c1cc(Oc2ccc(NC(=O)Nc3ccc(Cl)c(C(F)(F)F)c3)cc2)ccn1", "note": "[sorafenib]", "values": [{"measurement": "drug sensitivity (mitochondrial metabolism by MTS)", "setting": "[1]", "value": "particularly sensitive"}]}
